Laboratory results taken from patent US12178809B2, “Pyridinyl sulfonamide derivatives, pharmaceutical compositions and uses thereof” (Boehringer Ingelheim International GmbH, priority 2018, dated 2024).
Counter-ions that a name gives are not always drawn. Like-named read-outs stand apart in the source and are kept apart here.

Columns and labels:
human AOC3 enzyme = human AOC3 enzyme (Homo sapiens (Human), UniProt Q16853); assay: AOC3 biochemical assay (MAO-Glo)
Text: The MAO-Glo™ Assay (commercially available from PROMEGA, #V1402) provides a sensitive method for the measurement of monoamine oxidase (MAO) activity (Valley, M. P. et al., 2006, Anal. Biochem. 359: 238-246) from a variety of tissues, biofluids or recombinant expressed or purified enzymes. As substrate a derivate of the beetle luciferin ((4S)-4,5-dihydro-2-(6-hydroxybenzothiazolyl)-4-thiazole-carboxylic acid) is used, which is oxidized at a primary amine moiety. After a spontaneous elimination and a catalyzed esterase reaction, the turnover of the luciferine by the luciferase is recorded as a signal of AOC3 activity.
An aliquot of 3 μL of the compound dilution is added to a 384 well plate (Optiplate, PS, flat bottom, white, PERKIN ELMER, #6007290) with a final DMSO concentration of 6.6%. Recombinant CHO cells, overexpressing the human (1500 cells/well), mouse (1000 cells/well) or rat (500 cells/well) AOC3 enzyme are diluted in reaction buffer and added in a volume of 15 μL to the wells. After incubation for 20 minutes at 37° C., 2 μL of MAO substrate (dissolved in DMSO at 16 mM, adjusted to assay concentration in reaction buffer to a final assay concentration of 20 μM) is added and further incubated for 60 minutes at 37° C. The turnover of the substrate is determined by the addition of 20 μL of the detection-mix which was generated by the addition of reconstitution buffer with esterase (PROMEGA, #V1402) to the luciferine detection reagent (PROMEGA, #V1402). After an incubation period of 20 minutes, the luminescent signal is measured with Envision 2104 Multilabel Reader (PERKIN ELMER).

AOC1 = AOC1 (Homo sapiens (Human), UniProt P19801); assay: AOC1 biochemical assay (Amplex Red)
Procedure: The Amplex® Red Assay (available from Thermo Fisher Scientific) provides a sensitive method for the detection of H2O2 generated during enzymatic reactions like the amine oxidation catalyzed by AOC1. The assay reagent is a colorless substrate (N-acetyl-3,7-dihydroxyphenoxazine) that reacts in a 1:1 stoichiometry with hydrogen peroxide (H2O2) to produce the fluorescent dye resorufin (7-hydroxyphenoxazin-3-one, excitation/emission maxima=570/585 nm).
An aliquot of 3 μL of the compound dilution is added to a 384 well plate (Optiplate, PS, flat bottom F, black, PERKIN ELMER, #6007270) in a DMSO concentration of 6.6%.
An AOC1 enzyme aliquot (#8297-AO-010, R&D Systems) is thawed on ice, diluted in reaction buffer and added in a volume of 7 μL to the wells to give a final assay concentration of 1 ng/well. After incubation of inhibitor and enzyme for 30 minutes at 37° C., the enzymatic reaction is started with the addition of 10 μL of Amplex® Red reaction mix (final assay concentration: 100 mM sodiumphosphate, 120 μM Amplex® Red reagent (#A22177 Molecular Probes), 1.5 U/mL Horseradish Peroxidase (#P8375 Sigma-Aldrich), 200 μM putrescine (#P7505 Sigma-Alrdich), 0.05% Pluronic F-127 (#P3000MP Sigma-Aldrich), pH 7.4, 37° C.).
After an incubation for 30 minutes at 37° C. the turnover of the substrate is determined directly (or after the addition of an excess of an amine-oxidase inhibitor) with a fluorescence reader (Ex 540 nm/Em 590 nm) like Envision 2104 Multilabel Reader (PERKIN ELMER).

AOC2 = AOC2 (Homo sapiens (Human), UniProt O75106); assay: AOC2 biochemical assay (Amplex Red)
Procedure: An aliquot of 5 μL of the compound dilution is added to a 96 well plate (flat bottom F, black, GREINER bio-one, #655900) in a DMSO concentration of 2%. […] Cells are cultured for 3 days in EMEM culture medium containing 10% FCS (#04-00-1A, Biological Industries). After washing twice with ice cold PBS, cells are lysed by mechanic homogenation and cleared supernatants are shock frozen in liquid nitrogen and stored at -80° C. […] An Aliquot of 45 μL is added to the compound dilution and incubated for 30 min at 37° C. The enzymatic reaction is started with the addition of 50 μL of Amplex® Red reaction mix (final assay concentration: 100 mM sodiumphosphate, 120 μM Amplex® Red reagent (#A22177 Molecular Probes), 1.5 U/mL Horseradish Peroxidase (#P8375 Sigma-Aldrich), 2 mM phenylethylamine (#[…] Sigma-Aldrich), 0.05% Pluronic F-127 (#P3000MP Sigma-Aldrich), pH 7.4, 37° C.). The turnover per time of the substrate is determined directly with a fluorescence reader (Ex 540 nm/Em 590 nm) like Envision 2104 Multilabel Reader (PERKIN ELMER) for 60 min.

[1] = comparison table, unit μM, read-out: IC50 AOC1
[2] = comparison table, read-out: IC50 AOC2
[3] = comparison table, read-out: IC50 AOC3
[4] = comparison table, read-out: IC50 AOC1

Chain of AOC2 (O75106 whole entry): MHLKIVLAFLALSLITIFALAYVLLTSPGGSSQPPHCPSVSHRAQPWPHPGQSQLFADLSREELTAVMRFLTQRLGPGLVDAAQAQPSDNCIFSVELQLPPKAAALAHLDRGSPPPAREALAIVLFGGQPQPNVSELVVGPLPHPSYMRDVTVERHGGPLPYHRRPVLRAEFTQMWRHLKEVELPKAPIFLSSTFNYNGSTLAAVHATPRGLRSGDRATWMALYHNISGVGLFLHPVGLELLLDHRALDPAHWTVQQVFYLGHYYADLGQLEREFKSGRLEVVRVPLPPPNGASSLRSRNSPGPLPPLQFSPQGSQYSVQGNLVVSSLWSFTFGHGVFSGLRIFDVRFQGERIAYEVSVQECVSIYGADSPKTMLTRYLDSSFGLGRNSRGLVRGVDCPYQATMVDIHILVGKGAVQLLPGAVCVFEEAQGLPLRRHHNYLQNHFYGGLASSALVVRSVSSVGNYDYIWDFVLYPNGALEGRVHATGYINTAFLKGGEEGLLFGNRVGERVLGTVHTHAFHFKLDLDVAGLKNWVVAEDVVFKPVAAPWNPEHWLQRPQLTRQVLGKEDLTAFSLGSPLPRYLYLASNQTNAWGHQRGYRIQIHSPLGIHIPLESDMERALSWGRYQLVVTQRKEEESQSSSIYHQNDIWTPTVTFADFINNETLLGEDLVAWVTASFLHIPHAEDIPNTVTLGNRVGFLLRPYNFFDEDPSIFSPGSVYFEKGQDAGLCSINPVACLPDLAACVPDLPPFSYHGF
Chain of human AOC3 enzyme (Q16853 whole entry): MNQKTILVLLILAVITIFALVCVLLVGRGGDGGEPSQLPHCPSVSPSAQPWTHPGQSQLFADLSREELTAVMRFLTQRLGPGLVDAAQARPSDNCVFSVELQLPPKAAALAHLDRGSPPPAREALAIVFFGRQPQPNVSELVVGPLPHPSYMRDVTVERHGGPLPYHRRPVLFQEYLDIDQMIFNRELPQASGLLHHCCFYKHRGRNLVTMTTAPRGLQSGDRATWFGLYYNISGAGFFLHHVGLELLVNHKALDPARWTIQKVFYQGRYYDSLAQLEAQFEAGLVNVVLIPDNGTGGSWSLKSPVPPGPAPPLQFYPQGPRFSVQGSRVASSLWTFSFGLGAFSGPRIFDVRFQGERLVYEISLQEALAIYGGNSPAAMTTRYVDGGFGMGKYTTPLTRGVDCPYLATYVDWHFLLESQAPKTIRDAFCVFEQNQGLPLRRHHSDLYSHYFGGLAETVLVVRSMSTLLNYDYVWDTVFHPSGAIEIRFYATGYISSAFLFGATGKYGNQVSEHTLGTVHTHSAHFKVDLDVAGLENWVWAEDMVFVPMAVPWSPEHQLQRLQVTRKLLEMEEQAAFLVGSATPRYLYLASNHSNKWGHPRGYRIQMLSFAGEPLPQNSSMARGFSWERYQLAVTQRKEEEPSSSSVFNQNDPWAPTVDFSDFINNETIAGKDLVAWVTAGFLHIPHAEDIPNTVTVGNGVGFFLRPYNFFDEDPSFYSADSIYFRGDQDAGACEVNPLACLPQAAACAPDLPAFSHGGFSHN
Chain of AOC1 (P19801 20-751): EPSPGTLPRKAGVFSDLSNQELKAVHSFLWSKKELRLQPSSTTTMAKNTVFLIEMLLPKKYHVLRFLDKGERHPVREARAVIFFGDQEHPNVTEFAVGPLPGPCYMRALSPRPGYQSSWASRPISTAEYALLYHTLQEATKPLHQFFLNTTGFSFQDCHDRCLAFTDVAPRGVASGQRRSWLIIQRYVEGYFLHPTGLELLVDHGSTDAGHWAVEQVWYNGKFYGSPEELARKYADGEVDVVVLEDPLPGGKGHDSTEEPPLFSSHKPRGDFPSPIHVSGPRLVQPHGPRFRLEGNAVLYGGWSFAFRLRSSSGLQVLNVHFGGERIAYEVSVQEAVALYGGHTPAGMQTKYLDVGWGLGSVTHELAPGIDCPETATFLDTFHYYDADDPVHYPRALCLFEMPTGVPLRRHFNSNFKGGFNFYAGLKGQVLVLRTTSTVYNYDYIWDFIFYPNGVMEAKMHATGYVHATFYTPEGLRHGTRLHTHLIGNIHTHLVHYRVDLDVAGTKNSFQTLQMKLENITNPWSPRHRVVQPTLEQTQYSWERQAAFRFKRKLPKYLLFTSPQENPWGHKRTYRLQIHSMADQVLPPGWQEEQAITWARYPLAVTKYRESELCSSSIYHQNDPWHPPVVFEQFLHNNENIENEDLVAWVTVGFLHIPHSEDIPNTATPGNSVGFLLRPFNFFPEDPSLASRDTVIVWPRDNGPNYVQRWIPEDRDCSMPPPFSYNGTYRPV

IC50 (human AOC3 enzyme; read-out: AOC3 IC50) [nM]	IC50 (AOC1; read-out: AOC1 IC50) [µM]	IC50 (AOC2; read-out: AOC2 IC50) [nM]	fold less active against AOC2 as compared to AOC3 (ratio IC50 AOC2/IC50 AOC3) (AOC2)	IC50 (AOC1; [1]) [µM]	IC50 (AOC2; [2]) [nM]	IC50 (human AOC3 enzyme; [3]) [nM]	IC50 (AOC1; [4]) [µM]	SMILES
23	31	–	–	–	–	–	–	COCCNC(=O)[C@H]1[C@@H]2CN(S(=O)(=O)c3ccc(OC/C(=C/F)CN)nc3)C[C@@H]21 [Example 66]
12	> 50	401	–	–	–	–	–	CCNC(=O)C1CCN(S(=O)(=O)c2ccc(OC/C(=C/F)CN)nc2)CC1 [Example 11]
38	> 50	207	ca. 5 fold	> 50	–	–	–	NC/C(=C\F)COc1ccc(S(=O)(=O)N2CC[C@H](O)C2)cn1 [Example 35, (S)-1-[6-((E)-2-Aminomethyl-3-fluoro-allyloxy)-pyridine-3-sulfonyl]-pyrrolidin-3-ol]
49	> 50	806	–	–	–	–	–	NC/C(=C\F)COc1ccc(S(=O)(=O)N2CCC(N3CCNC3=O)CC2)cn1 [Example 04]
10	11.4	307	ca. 30 fold	–	–	–	–	NC/C(=C\F)COc1ccc(S(=O)(=O)N2CCC(O)CC2)cn1.O=C(O)C(F)(F)F [Example 45]
37	> 50	244	–	–	–	–	–	CC1(O)CN(S(=O)(=O)c2ccc(OC/C(=C/F)CN)nc2)C1 [Example 18]
18	> 50	–	–	–	–	–	–	NC/C(=C\F)COc1ccc(S(=O)(=O)N2CCC(C(=O)NCCO)CC2)cn1 [Example 62]
–	–	–	–	–	497	13	0.268	CO[C@H]1CCN(c2ncc(OC/C(=C/F)CN)cn2)C1 [Example 5 of WO 2018/027892, reference compound]
25	23.6	1020	–	–	–	–	–	CNC(=O)[C@@]12C[C@@H]1CN(S(=O)(=O)c1ccc(OC/C(=C/F)CN)nc1)C2 [Example 03]
20	> 50	24	–	–	–	–	–	NC/C(=C\F)COc1ccc(S(=O)(=O)N2CCC(O)(C(F)(F)F)CC2)cn1 [Example 50]
21	> 50	50	–	–	–	–	–	NC/C(=C\F)COc1ccc(S(=O)(=O)N2CC[C@H](C(N)=O)C2)cn1 [Example 49]
26	> 50	61	–	–	–	–	–	CC1(C(N)=O)CCN(S(=O)(=O)c2ccc(OC/C(=C/F)CN)nc2)CC1 [Example 61]
–	> 50	593	–	–	–	–	–	CC(=O)N[C@H]1CCCN(S(=O)(=O)c2ccc(OC/C(=C/F)CN)nc2)C1 [Example 06]
52	> 50	407	–	–	–	–	–	NC/C(=C\F)COc1ccc(S(=O)(=O)N2CCC(C(=O)N3CCOCC3)CC2)cn1 [Example 10]
–	–	–	22 fold	> 50	287	13	–	COC1CN(S(=O)(=O)c2ccc(OC/C(=C/F)CN)cc2)C1 [Reference compound A, reference compound]
11	> 50	–	–	–	–	–	–	CC(F)(F)CNC(=O)C1CCN(S(=O)(=O)c2ccc(OC/C(=C/F)CN)nc2)CC1 [Example 65]
26	> 50	125	ca. 5 fold	> 50	125	26	–	COC1CCN(S(=O)(=O)c2ccc(OC/C(=C/F)CN)nc2)C1.O=C(O)C(F)(F)F (stereo not drawn) [Example 40]
43	> 50	358	–	–	–	–	–	NC/C(=C\F)COc1ccc(S(=O)(=O)N2CCC(C(=O)N3CCC3)CC2)cn1 [Example 13]

IC50 (human AOC3 enzyme; read-out: AOC3 IC50) [nM]	IC50 (AOC1; read-out: AOC1 IC50) [µM]	IC50 (AOC2; read-out: AOC2 IC50) [nM]	fold less active against AOC2 as compared to AOC3 (ratio IC50 AOC2/IC50 AOC3) (AOC2)	IC50 (AOC1; [1]) [µM]	IC50 (AOC2; [2]) [nM]	IC50 (human AOC3 enzyme; [3]) [nM]	IC50 (AOC1; [4]) [µM]	SMILES
–	> 50	151	–	–	–	–	–	CNC(=O)[C@H]1CCN(S(=O)(=O)c2ccc(OC/C(=C/F)CN)nc2)C1 [Example 29]
21	> 50	92	–	–	–	–	–	NC/C(=C\F)COc1ccc(S(=O)(=O)N2CCC(CC(N)=O)CC2)cn1 [Example 60]
18	27.2	–	–	–	–	–	–	COCCN(C)C(=O)[C@H]1[C@@H]2CN(S(=O)(=O)c3ccc(OC/C(=C/F)CN)nc3)C[C@@H]21 [Example 59]
15	33	49	–	–	–	–	–	NC/C(=C\F)COc1ccc(S(=O)(=O)N2CC[C@@H](C(N)=O)C2)cn1 [Example 33]
62	> 50	180	–	–	–	–	–	CC(=O)NC1CCN(S(=O)(=O)c2ccc(OC/C(=C/F)CN)nc2)C1 (stereo not drawn) [Example 23]
308	> 50	4	–	–	–	–	–	NC/C(=C\F)COc1ccc(S(=O)(=O)N2CCC(CC(=O)O)CC2)cn1 [Example 54, trifluoroacetate]
42	> 49.9	158	–	–	–	–	–	CN(C)C(=O)C1CN(S(=O)(=O)c2ccc(OC/C(=C/F)CN)nc2)C1 [Example 28]
37	> 50	524	–	–	–	–	–	CN(C(N)=O)C1CCN(S(=O)(=O)c2ccc(OC/C(=C/F)CN)nc2)CC1 [Example 08]
33	> 50	1140	–	–	–	–	–	CCC(=O)NC1CCN(S(=O)(=O)c2ccc(OC/C(=C/F)CN)nc2)CC1 [Example 02]
51	> 50	160	–	–	–	–	–	CN(C)C(=O)[C@H]1CCN(S(=O)(=O)c2ccc(OC/C(=C/F)CN)nc2)C1 [Example 27]
8	> 50	251	–	–	–	–	–	NC/C(=C\F)COc1ccc(S(=O)(=O)N2CCC(C(N)=O)CC2)cn1 [Example 17]
5	23.2	144	–	–	–	–	–	NC/C(=C\F)COc1ccc(S(=O)(=O)N2CCCCC2)cn1 [Example 47]
–	–	–	–	–	–	20	0.269	NC/C(=C\F)COc1cnc(N2CCC(O)CC2)nc1 [Example 2 of WO 2018/027892, reference compound]
19	> 50	–	–	–	–	–	–	NC/C(=C\F)COc1ccc(S(=O)(=O)N2CCC(C(=O)NC3CC3)CC2)cn1 [Example 63]
–	–	–	–	> 50	–	27	–	NC/C(=C\F)COc1ccc(S(=O)(=O)N2CC[C@H](O)C2)cc1 [Reference compound B, reference compound]
–	> 50	165	–	–	–	–	–	CNC(=O)[C@@H]1CCN(S(=O)(=O)c2ccc(OC/C(=C/F)CN)nc2)C1 [Example 24]
17	> 50	–	–	–	–	–	–	NC/C(=C\F)COc1ccc(S(=O)(=O)N2CCC(C(=O)NCCF)CC2)cn1 [Example 64]

SMILES	IC50 (human AOC3 enzyme; read-out: AOC3 IC50) [nM]	IC50 (AOC1; read-out: AOC1 IC50) [µM]	IC50 (AOC2; read-out: AOC2 IC50) [nM]	fold less active against AOC2 as compared to AOC3 (ratio IC50 AOC2/IC50 AOC3) (AOC2)	IC50 (AOC1; [1]) [µM]	IC50 (AOC2; [2]) [nM]	IC50 (human AOC3 enzyme; [3]) [nM]	IC50 (AOC1; [4]) [µM]
NC/C(=C\F)COc1ccc(S(=O)(=O)N2C[C@@H]3[C@H](C2)[C@H]3C(=O)O)cn1 [Example 55, trans-3-[6-((E)-2-Aminomethyl-3-fluoro-allyloxy)-pyridine-3-sulfonyl]-3-aza-bicyclo[3.1.0]hexane-6-carboxylic acid trifluoroacetate]	391	> 50	50	–	–	–	–	–
